This note sets out measurements from patent publication US7732440B2, “Phenothiazin derivatives, method for the production thereof and use thereof as pharmaceuticals” (Sanofi-Aventis, priority 2007, dated 2010).

The target in the data set is T1, Human glucokinase (Homo sapiens, UniProt P35557).
T1 construct: the glucokinase polypeptide beginning with Ser-6 is obtained; GST (N, cleaved yes); made in house; host or cells: E. coli BL21
T1 sequence (P35557 6-464 isoform P35557-3 limits assumed): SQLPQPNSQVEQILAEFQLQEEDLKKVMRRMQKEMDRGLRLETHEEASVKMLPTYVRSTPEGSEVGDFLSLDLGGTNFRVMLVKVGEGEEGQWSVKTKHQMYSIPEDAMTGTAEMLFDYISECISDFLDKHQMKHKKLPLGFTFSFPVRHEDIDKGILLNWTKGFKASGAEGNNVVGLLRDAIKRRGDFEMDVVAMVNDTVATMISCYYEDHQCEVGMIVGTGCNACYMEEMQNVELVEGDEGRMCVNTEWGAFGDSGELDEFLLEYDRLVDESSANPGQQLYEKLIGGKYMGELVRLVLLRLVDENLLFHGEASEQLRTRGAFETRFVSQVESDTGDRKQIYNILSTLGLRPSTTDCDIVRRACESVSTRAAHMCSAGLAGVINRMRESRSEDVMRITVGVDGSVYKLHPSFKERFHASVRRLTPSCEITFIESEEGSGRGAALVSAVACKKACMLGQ
Put plainly: Enzymatic test of glucokinase activators (coupled optical test). In kind it is biochemical. To be noted: 5 mM glucose; for Concentration raising glucokinase activity by 50% (EC150): concentration of test compound which increases the enzymatic activity by 50% (0 μM = 100%), 25° C., 1 mM ATP, pH 7; for Fold induction: maximum fold stimulation: highest change in extinction in the concentration range 0.1-100 μM relative to change without test substance. From the text: Enzymatic Test of Glucokinase Activators
Human glucokinase is expressed as a fusion protein with glutathione S-transferase (GST) in E. coli BI21 and purified by affinity chromatography. […] is cleaved off by digestion with factor Xa, and the glucokinase polypeptide beginning with Ser-6 is obtained. The latter is purified chromatographically. At room temperature, a typical glucokinase preparation has a specific activity of 30 U/mg protein.
The activity of glucokinase and the effect of compounds on this activity are determined by a coupled optical test at 25° C. The test volume is 100 μl. The test composition is: 25 mM HEPES/NaOH (Merck; #110110) pH 7, 25 mM KCl (Merck; #04933), 2 mM MgCl2 (Merck; #05833), 1 mM dithiothreitol (Merck; #112013), 1 mM NAD (Sigma; #N1511), 5 mM glucose (Merck; #108337), 1 mM ATP (Sigma; #A2383), 0.1% (w/v) bovine serum albumin (Merck; #112018), 0.002 U glucokinase preparation and 3.2 U glucose 6-phosphate dehydrogenase (Sigma; #G8529). The mixture furthermore contains a test compound. The test compounds are in each case dissolved in 10 mM DMSO and are tested at final concentrations of 0 μM, 0.1 μM, 0.3 μM, 1 μM, 3 μM, 10 μM, 30 μM and 100 μM. The final concentration of DMSO in the test is 1% (v/v). The reaction is started by addition of ATP. The absorption of the mixture at 340 nm is determined immediately after the addition of ATP and then 25 min later using a multiwell plate photometer (from Labsystems, Multiskan Ascent). The change of the absorption during this period is calculated.
The crude data of the changes in extinction are transferred into a Microsoft Excel file. The value for 0 μM test compound is assigned to be 100%. Dose/activity curves are calculated using the program XL.Fit according to the instructions of the manufacturer (IDBS). The concentration of a test compound which increases the enzymatic activity by 50% is defined as EC150. The maximum fold stimulation corresponds to the ratio of the highest change in extinction in the concentration range of a test compound to the change of the absorption without test substance.

On to `Cc1ccc(NC(=O)C(CC2CCOCC2)c2ccc3c(c2)N(C)c2ccccc2S3(=O)=O)nn1` (centres unmarked) [Example 6, 2-(10-Methyl-5,5-dioxo-5,10-dihydrophenothiazin-2-yl)-N-(6-methylpyridazin-3-yl)-3-(tetrahydropyran-4-yl)propionamide], for which the Concentration raising glucokinase activity by 50% (EC150) is 15500 nM and the Fold induction came out at 2.1.

Take `COc1ccc2nc(NC(=O)C(C[C@H]3CCC(=O)C3)c3ccc4c(c3)N(C)c3ccccc3S4(=O)=O)sc2n1` (stereo partly drawn) [Example 41, N-(5-Methoxythiazolo[5,4-b]pyridin-2-yl)-2-(10-methyl-5,5-dioxo-5,10-dihydrophenothiazin-2-yl)-3-((R)-3-oxocyclopentyl)propionamide]: the Concentration raising glucokinase activity by 50% (EC150) was 700 nM and the Fold induction turned out to be 3.9.

`COc1ccc2nc(NC(=O)C(CC3CCOCC3)c3ccc4c(c3)N(C)c3ccccc3S4(=O)=O)sc2n1` (centres unmarked) [Example 15, N-(5-Methoxy-thiazolo[5,4-b]pyridin-2-yl)-2-(10-methyl-5,5-dioxo-5,10-dihydrophenothiazin-2-yl)-3-(tetrahydropyran-4-yl)propionamide] came in with a Concentration raising glucokinase activity by 50% (EC150) of 900 nM and a Fold induction of 5.0.

Take `CN1c2ccccc2S(=O)(=O)c2ccc(C(CC3CCCC3)C(=O)Nc3nccs3)cc21` (centres unmarked) [Example 9, 3-Cyclopentyl-2-(10-methyl-5,5-dioxo-5,10-dihydrophenothiazin-2-yl)-N-thiazol-2-yl-propionamide]: the Concentration raising glucokinase activity by 50% (EC150) was 2200 nM and the Fold induction worked out at 2.8.

Molecule `CCOC(=O)c1ccc2c(c1)S(=O)(=O)c1ccc(C(CC3CCC(=O)C3)C(=O)Nc3ccn(C)n3)cc1N2C` (centres unmarked) [Example 42, Ethyl 10-methyl-8-[1-(1-methyl-1H-pyrazol-3-ylcarbamoyl)-2-(3-oxocyclopentyl)-ethyl]-5,5-dioxo-5,10-dihydrophenothiazine-3-carboxylate] registered a Concentration raising glucokinase activity by 50% (EC150) of 1200 nM and a Fold induction of 3.6.

As for `CN1c2ccccc2S(=O)(=O)c2ccc(C(CC3CCOCC3)C(=O)Nc3ccn(C)n3)cc21` (centres unmarked) [Example 5, 2-(10-Methyl-5,5-dioxo-5,10-dihydrophenothiazin-2-yl)-N-(1-methyl-1H-pyrazol-3-yl)-3-(tetrahydropyran-4-yl)propionamide], the Concentration raising glucokinase activity by 50% (EC150) is 2100 nM and the Fold induction is recorded as 4.4.

In the case of `Cn1ccc(NC(=O)C(C[C@H]2CCC(=O)C2)c2ccc3c(c2)Nc2ccccc2S3(=O)=O)n1` (stereo partly drawn) [Example 46, 2-(5,5-Dioxo-5,10-dihydrophenothiazin-2-yl)-N-(1-methyl-1H-pyrazol-3-yl)-3-((R)-3-oxocyclopentyl)propionamide], the Concentration raising glucokinase activity by 50% (EC150) worked out at 600 nM and the Fold induction is 5.0.

`CN1c2ccccc2S(=O)(=O)c2ccc(C(CC3CCC(=O)CC3)C(=O)Nc3ccn(C)n3)cc21` (centres unmarked) [Example 36, 2-(10-Methyl-5,5-dioxo-5,10-dihydrophenothiazin-2-yl)-N-(1-methyl-1H-pyrazol-3-yl)-3-(4-oxocyclohexyl)propionamide] showed a Concentration raising glucokinase activity by 50% (EC150) of 500 nM and a Fold induction of 4.0.

Consider `CN1c2ccccc2S(=O)(=O)c2ccc(C(CC3CCOCC3)C(=O)Nc3nccs3)cc21` (centres unmarked) [Example 1, 2-(10-Methyl-5,5-dioxo-5,10-dihydrophenothiazin-2-yl)-3-(tetrahydropyran-4-yl)-N-thiazol-2-ylpropionamide], for which the Concentration raising glucokinase activity by 50% (EC150) came to 4200 nM and the Fold induction stood at 2.0.

`Cn1ccc(NC(=O)C(CC2CC=C(F)CC2)c2ccc3c(c2)Nc2ccccc2S3(=O)=O)n1` (centres unmarked) [Example 54, 2-(5,5-Dioxo-5,10-dihydrophenothiazin-2-yl)-3-(4-fluorocyclohex-3-enyl)-N-(1-methyl-1H-pyrazol-3-yl)propionamide] had a Concentration raising glucokinase activity by 50% (EC150) of 1000 nM and a Fold induction of 4.5.
